Test results published in publication PMC12098869, “An mRNA-display derived cyclic peptide scaffold reveals the substrate binding interactions of an N-terminal cysteine oxidase” (Nature Communications, 2025).
“And” between values parts separate entries of the source, which are not always exact repeats. Equal entries are not always repeated. One block for each molecule: values may come before it. Where a SMILES comes first, the peptide text is derived from it. Bridges are numbered along the chain shown (N, C = ends). Where no end group is shown, it is not given here. Side-chain parts run from the residue outwards. [ ]: non-standard residue; d: D form. Orn = NCCC[C@H](N)C(=O)O; Dap = NC[C@H](N)C(=O)O

Assays:
human ADO = biological target: T1, human ADO (Homo sapiens, UniProt Q96SZ5); assay: SPR single-cycle kinetic (SCK) binding of cyclic peptides to ADO; conditions: for KD: Supplementary Fig. 4 series
T1 construct: Full-length human ADO (Uniprot ID: Q96SZ5) was cloned; made in house; host or cells: E. coli Rosetta2(DE3)
T1 sequence (Q96SZ5 1-270): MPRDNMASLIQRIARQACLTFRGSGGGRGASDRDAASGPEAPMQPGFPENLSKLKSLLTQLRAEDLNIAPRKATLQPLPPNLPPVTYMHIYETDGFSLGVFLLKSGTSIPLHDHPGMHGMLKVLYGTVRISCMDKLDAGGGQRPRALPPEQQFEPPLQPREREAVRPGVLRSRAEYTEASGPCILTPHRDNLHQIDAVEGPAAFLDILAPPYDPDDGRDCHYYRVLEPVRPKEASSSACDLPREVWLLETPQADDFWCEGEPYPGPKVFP
Excerpt: After six cycles, clear enrichment of several CPs was observed by next-generation sequencing. The most enriched CPs (CP1-8, numbered according to their percentage enrichment in the final selection round) were selected for subsequent analysis (Table 1). CP1, 5, 6 and 7 are related in sequence, while CP2, 3, 4, and 8 are unique compositions (Fig. 1b). These CPs were subsequently produced by solid-phase peptide synthesis (SPPS) and analysed by surface plasmon resonance (SPR) using single cycle kinetic (SCK) analysis to confirm and quantify binding to ADO. ADO could interact with each CP to varying degrees (Supplementary Fig. 4, Table 1, Fig. 1dleft).
SPR measurements were made using a Biacore T200 (Cytiva) instrument and data were analysed using the Biacore Insight Evaluation Software. Biotinylated-ADO was immobilised on a Biotin CAP chip (Cytiva) with a target density of ∼2500–3000 RU and peptide/protein substrates were injected over the chip. Experiments were conducted at 4 °C using both multi-cycle (fit using the equilibrium steady state affinity 1:1 binding model) and single-cycle kinetics mode (fit using a 1:1 binding model). A buffer comprising 20 mM HEPES pH 7.5, 500 mM NaCl, 10 mM DTT, and 0.1% (v/v) tween-20 was used as the running buffer at a flow rate of 50 μL/minute.

[1] = biological target: T2, 2-aminoethanethiol dioxygenase (ADO), full-length human, N-terminally His-tagged and biotinylated … (human, UniProt Q96SZ5 1-270, biotin (biotinylated during expression, 0.2 mM biotin added)); assay: SPR; single-cycle kinetics (1:1 binding model); biotinylated ADO immobilised on a Biotin CAP chip (~2500-3000 RU), cyclic peptide injected; Biacore T200, 4 °C; 20 mM HEPES pH 7.5, 500 mM NaCl, 10 mM DTT, 0.1% tween-20; 50 µL/minute; each cell is one of three independent measurements; conditions: both partners purified
T2 construct: 2-aminoethanethiol dioxygenase (ADO), human, UniProt Q96SZ5, full length; Immobilised through its biotin on a Biotin CAP chip for SPR; also called wild type ADO; Biotinylated-ADO; source: E. coli Rosetta2(DE3), purified (Ni-NTA, SEC); not shown: biotinylation tag (from the vector pQE80L-Navi), N-terminal, kept
T2 sequence (looked up): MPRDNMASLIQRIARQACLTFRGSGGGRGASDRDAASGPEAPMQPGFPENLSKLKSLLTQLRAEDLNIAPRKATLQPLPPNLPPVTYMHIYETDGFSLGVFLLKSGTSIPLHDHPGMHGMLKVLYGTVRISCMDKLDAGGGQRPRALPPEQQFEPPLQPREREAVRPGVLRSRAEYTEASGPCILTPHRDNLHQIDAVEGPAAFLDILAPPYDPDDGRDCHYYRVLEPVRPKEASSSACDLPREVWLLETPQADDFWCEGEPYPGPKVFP
Summary of the method: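 Full-length human ADO carrying a His tag and a biotin label was produced in E. coli and purified first by nickel affinity, then by gel filtration. The protein was loaded onto a Biotin CAP chip in a Biacore T200 to roughly 2500–3000 RU, after which cyclic peptides were passed across the surface at 50 µL/minute and 4 °C in HEPES pH 7.5 buffer containing 500 mM NaCl, DTT and tween-20. Each Kd was obtained by fitting single-cycle kinetic sensorgrams to a 1:1 binding model, based on three independent measurements.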

[2] = Fig. 3c series, geometric mean of a minimum of three independent measurements (n = 3)
[3] = 1:1 binding model, 4 °C, geometric mean of a minimum of three independent measurements (n = 3) with standard error

Molecule: CC[C@H](C)[C@@H]1NC(=O)[C@H](Cc2ccc(O)cc2)NC(=O)CSC[C@@H](C(N)=O)NC(=O)[C@H](CCC(N)=O)NC(=O)[C@H](CCCNC(=N)N)NC(=O)[C@H](Cc2c[nH]cn2)NC(=O)[C@H](CO)NC(=O)CNC(=O)[C@H](CCCCNC(=O)[C@@H](N)CO)NC(=O)[C@H](Cc2c[nH]c3ccccc23)NC(=O)[C@H](Cc2ccccc2)NC(=O)[C@H]([C@@H](C)O)NC(=O)[C@H](CCCCN)NC(=O)[C@H](C(C)C)NC1=O [CP6-L8K-Ser] ({CH2CO}-YIVKTFWK(Ser)GSHRQC-NH2; thioether N-14)
Kd (human ADO; [2]): 21 ± 4.9 nM

Molecule: CC[C@H](C)[C@@H]1NC(=O)[C@H](Cc2ccc(O)cc2)NC(=O)CSC[C@@H](C(N)=O)NC(=O)[C@H](CCC(N)=O)NC(=O)[C@H](CCCNC(=N)N)NC(=O)[C@H](Cc2c[nH]cn2)NC(=O)[C@H](CO)NC(=O)CNC(=O)[C@H](CCCNC(=O)[C@@H](N)CO)NC(=O)[C@H](Cc2c[nH]c3ccccc23)NC(=O)[C@H](Cc2ccccc2)NC(=O)[C@H]([C@@H](C)O)NC(=O)[C@H](CCCCN)NC(=O)[C@H](C(C)C)NC1=O [CP6-L8O-Ser] ({CH2CO}-YIVKTFW[Orn](Ser)GSHRQC-NH2; thioether N-14)
Kd (human ADO; [2]): 140 ± 120 nM

Molecule: CC[C@H](C)[C@@H]1NC(=O)[C@H](Cc2ccc(O)cc2)NC(=O)CSC[C@@H](C(N)=O)NC(=O)[C@H](CCC(N)=O)NC(=O)[C@H](CCCNC(=N)N)NC(=O)[C@H](Cc2c[nH]cn2)NC(=O)[C@H](CO)NC(=O)CNC(=O)[C@H](CCCCNC(=O)[C@@H](N)CS)NC(=O)[C@H](Cc2c[nH]c3ccccc23)NC(=O)[C@H](Cc2ccccc2)NC(=O)[C@H]([C@@H](C)O)NC(=O)[C@H](CCCCN)NC(=O)[C@H](C(C)C)NC1=O [CP6-L8K-Cys] ({CH2CO}-YIVKTFWK(Cys)GSHRQC-NH2; thioether N-14)
Kd (human ADO; Fig. 3c / Supplementary Fig. 15 series, replicate 3): 13.6 nM

Molecule: {CH2CO}-YIVKTFW[Dap]([Gly-Ser])GSHRQC (thioether N-14) [CP6-L8d-Gly-Ser]
Kd [1]: 154 nM and 144 nM and 145 nM

Continued, values first:

KD (human ADO; replicate 1): 13500 nM
KD (human ADO; replicate 2): 5000 nM
KD (human ADO; replicate 3): 6630 nM
Molecule: CC(C)C[C@@H]1NC(=O)[C@H](CCCNC(=N)N)NC(=O)CNC(=O)[C@H](CCCNC(=N)N)NC(=O)[C@H](CCCNC(=N)N)NC(=O)[C@@H]2CCCN2C(=O)[C@H](Cc2ccccc2)NC(=O)CNC(=O)[C@H](CCC(=O)O)NC(=O)[C@H](CC(N)=O)NC(=O)[C@H](CC(C)C)NC(=O)[C@H]([C@@H](C)O)NC(=O)[C@H](Cc2c[nH]c3ccccc23)NC(=O)[C@H](Cc2ccc(O)cc2)NC(=O)CSC[C@@H](C(N)=O)NC1=O [CP3] ({CH2CO}-YWTLNEGFPRRGRLC-NH2; thioether N-15; N-terminus and C-terminus assumed)

Kd (human ADO; [3]): 35.4 ± 2.11 nM
Molecule: CC(C)C[C@@H]1NC(=O)[C@H](Cc2c[nH]c3ccccc23)NC(=O)[C@H]([C@@H](C)O)NC(=O)[C@H]([C@@H](C)O)NC(=O)[C@H](CO)NC(=O)[C@H](C(C)C)NC(=O)[C@H]([C@@H](C)O)NC(=O)[C@H](Cc2ccc(O)cc2)NC(=O)CSC[C@@H](C(N)=O)NC(=O)[C@H](CCC(N)=O)NC(=O)[C@H](CCCNC(=N)N)NC(=O)[C@H](Cc2c[nH]cn2)NC(=O)[C@H]([C@@H](C)O)NC(=O)CNC1=O [CP1] ({CH2CO}-YTVSTTWLGTHRQC-NH2; thioether N-14)

KD (human ADO; replicate 1): 6280 nM
KD (human ADO; replicate 2): 5190 nM
KD (human ADO; replicate 3): 4690 nM
Molecule: CC[C@H](C)[C@@H]1NC(=O)[C@H](CCCNC(=N)N)NC(=O)[C@H](Cc2ccc(O)cc2)NC(=O)CSC[C@@H](C(=O)N2CCC[C@H]2C(=O)N[C@@H](CS)C(N)=O)NC(=O)[C@H](CC(C)C)NC(=O)[C@H](C(C)C)NC(=O)[C@H](Cc2c[nH]c3ccccc23)NC(=O)[C@H](CO)NC(=O)[C@H](CCCNC(=N)N)NC(=O)[C@H](Cc2ccccc2)NC(=O)[C@H](C(C)C)NC(=O)[C@H](CCCNC(=N)N)NC(=O)[C@H]([C@@H](C)CC)NC1=O [CP2] ({CH2CO}-YRIIRVFRSWVLCPC-NH2; thioether N-13; N-terminus and C-terminus assumed)

Kd (human ADO; [3]): 66.2 ± 0.86 nM
Kd (human ADO; [2]): 51 ± 0.25 nM
Molecule: CC[C@H](C)[C@@H]1NC(=O)[C@H](Cc2ccc(O)cc2)NC(=O)CSC[C@@H](C(N)=O)NC(=O)[C@H](CCC(N)=O)NC(=O)[C@H](CCCNC(=N)N)NC(=O)[C@H](Cc2c[nH]cn2)NC(=O)[C@H](CO)NC(=O)CNC(=O)[C@H](CC(C)C)NC(=O)[C@H](Cc2c[nH]c3ccccc23)NC(=O)[C@H](Cc2ccccc2)NC(=O)[C@H]([C@@H](C)O)NC(=O)[C@H](CCCCN)NC(=O)[C@H](C(C)C)NC1=O [CP6] ({CH2CO}-YIVKTFWLGSHRQC-NH2; thioether N-14)
